In ChEMBL document CHEMBL1833888, “Fuscoside E: a strong anti-inflammatory diterpene from Caribbean octocoral Eunicea fusca” (2011):
Converted amounts (≈) assume the structure as drawn. The source made the active and inactive calls. No cut-off for these calls is given here.

Columns and labels:
Mus musculus = assay: Antiinflammatory activity in mouse assessed as inhibition of TPA-induced mouse ear edema at 0.5 mg/ear administered relative to untreated control; assay type: functional
[1] = tested on: Brucella pseudogrignonensis; assay: Antibacterial activity against Ochrobactrum pseudogrignonense 21-6 pin by disc-diffusion assay; assay type: functional, organism-based
Vibrio sp. = assay: Antibacterial activity against Vibrio sp. 11-6 DEP; assay type: functional
Bacillus sp. = assay: Antibacterial activity against Bacillus sp. by disc-diffusion assay; assay type: functional, organism-based

Structure (SMILES)	inhibition (INH) (Mus musculus)	Activity [1]	MIC (Vibrio sp.)	Activity (Bacillus sp.)
C=C[C@@]1(C)CC[C@H](/C(C)=C/C=C/C(C)(C)O[C@@H]2OC[C@@H](O)[C@@H](O)[C@@H]2O)C[C@@H]1C(=C)C [FUSCOSIDE B]	81.5%			
C=C1/C=C/[C@@H](C(C)C)CC/C(C)=C/CC1	7.1%	Active	15 µg/mL (≈ 73.4 µM)	Active
C=C[C@@]1(C)CC[C@H](/C(C)=C/C=C/C(C)(C)O)C[C@@H]1C(=C)C [FUSCOL]	27.3%			
CC(C)C/C=C/[C@@H](C)[C@H]1CC[C@H]2[C@@H]3CC=C4C[C@@H](O)CC[C@]4(C)[C@H]3CC[C@]12C		Active		Active
CC(C)CCC[C@@H](C)[C@H]1CC[C@H]2[C@@H]3CC=C4C[C@@H](O)CC[C@]4(C)[C@H]3CC[C@]12C		Active		Active
CC(C)C(C)/C=C/[C@@H](C)[C@H]1CC[C@H]2[C@@H]3CC=C4C[C@@H](O)CC[C@]4(C)[C@H]3CC[C@]12C (some centres not stated)		Active		Active
CC(=O)O[C@@H]1[C@H](O[C@H]2CC[C@H](C)[C@@]3(C)C[C@@H](/C(C)=C/CC=C(C)C)CC[C@H]23)OC[C@@H](O)[C@H]1O [FUSCOSIDE E]	80.5%	Active		Active
C/C=C(\CC[C@@H](C)[C@H]1CC[C@H]2[C@@H]3CC=C4C[C@@H](O)CC[C@]4(C)[C@H]3CC[C@]12C)C(C)C		Active		Active
C/C=C(/CC[C@@H](C)[C@H]1CC[C@H]2[C@@H]3CC=C4C[C@@H](O)CC[C@]4(C)[C@H]3CC[C@]12C)C(C)C		Active		Active
CC(C)C(C)CC[C@@H](C)[C@H]1CC[C@H]2[C@@H]3CC=C4C[C@@H](O)CC[C@]4(C)[C@H]3CC[C@]12C (some centres not stated)		Active		Active
COc1ccc2c(c1)c(CC(=O)O)c(C)n2C(=O)c1ccc(Cl)cc1 [INDOMETHACIN]	77.3%			
